From US9958453B2, “Biological sensing method for separating biomolecule” (priority 2015, dated 2018) come the findings set out here.

One experiment has as its system UlaG protein. In words: Phage display peptide screening against UlaG protein on ELISA plate. The following applies: UlaG protein expressed by Escherichia coli, purified, modified onto ELISA plate. It is filed as binding. An excerpt: The screening method of an amino acid according to an embodiment of the present invention included the following steps: • 1. UlaG protein was largely expressed by Escherichia coli • 2. The UlaG protein in step 1 was purified, and then modified onto an enzyme-linked immunosorbent assay (ELISA) plate. • 3. Phage display peptide system was used to perform the screening. The phage display peptide system used bacteriophages with various peptide segments to contact the UlaG protein. After a process of repeated binding, washing, eluting, amplifying, and re-binding, the bacteriophage that can bind to the UlaG protein was selected. • 4. The selected bacteriophage in step 3 was amplified and sequenced by polymerase chain reaction (PCR). The amino acid sequence that can bind to the UlaG protein was then obtained.
Therefore, an amino acid sequence including the sequence shown in SEQ ID NO: 1 or SEQ ID NO: 2 can be used in the recognition of the UlaG protein.

A further experiment concerns Streptococcus pneumoniae. In words: Field-effect transistor biological sensing device, detecting of Streptococcus pneumoniae. It is filed as binding, Streptococcus pneumoniae ATCC 49136. Particulars: amino acid sequence modified onto field-effect transistor; broths of Streptococcus pneumoniae with different concentrations; FIG. 3. An excerpt:
UlaG protein is expressed in the cell wall of Streptococcus pneumoniae. The following experimental example used the biological sensing device of the present invention to detect whether the sample included Streptococcus pneumoniae, and the detecting method included the following steps: • 1. The amino acid sequence including the sequence shown in SEQ ID NO: 1 was largely expressed by Escherichia coli. • 2. The amino acid sequence in step 1 was purified, and then modified onto a surface of a field-effect transistor. • 3. The field-effect transistor modified with the amino acid sequence in step 2 was contact to broths of Streptococcus pneumoniae with different concentrations, and the potential difference of the surface of the field-effect transistor modified was measured. The strain of Streptococcus pneumoniae used in this experimental example was ATCC 49136.
FIG. 2 is a schematic view of a biological sensing device 300 according to an embodiment of the present invention detecting a biomolecule 400. […]
FIG. 3 is a potential difference-bacterial concentration diagram of an embodiment of the present invention for the detecting experiment, which the bacterial concentration is represented by the number of colonies per milliliter (mL) of the broth. […] The Streptococcus pneumoniae can be detected by the change in the surface potential.

For the next experiment, the system named is Streptococcus mutans. In words: Field-effect transistor biological sensing device, comparative example Streptococcus mutans. It is filed as binding. The following applies: FIG. 4. The method, then:
Furthermore, the present experimental example applied Streptococcus mutans as a comparative example using the abovementioned biological sensing device 300 and detecting method. The field-effect transistor modified with the amino acid sequence including the sequence shown in SEC) ID NO: 1 was contact to broths of Streptococcus mutans with different concentrations, and the potential difference of the surface of the field-effect transistor modified was measured.
FIG. 4 is a potential difference-bacterial concentration diagram of a comparative example for a detecting experiment, which the bacterial concentration is represented by the number of colonies per mL of the broth. […] Therefore, Streptococcus […] is not recognized by and bound to the amino acid sequence of the biological sensing device of the present invention.

With “SEQ ID NO: 1: short sequence of 7 amino acids, selected by phage display, that binds the UlaG protein; used on the field-effect transistor (ENIMPVL; amino acid sequence bound to UlaG protein)”, the “binding affinity to the UlaG protein” value in the experiment on UlaG protein is given as “high binding affinities”. The “potential difference of the surface of the field-effect transistor vs bacterial concentration” value in the experiment on Streptococcus pneumoniae is given as “increased with the increase of the bacterial concentration”; in the experiment with Streptococcus mutans (amino acid sequence modified onto field-effect transistor, broths of Streptococcus mutans with different concentrations) it was “did not change accordingly with the increase of the bacterial concentration”. Moreover, the “reaction of the amino acid sequence with Streptococcus mutans” value with Streptococcus mutans (field-effect transistor device) is listed as “does not react”.
In the case of “SEQ ID NO: 2: short sequence of 7 amino acids, selected by phage display, that binds the UlaG protein (ERIMPVL; amino acid sequence bound to UlaG protein)”, the “binding affinity to the UlaG protein” value in the experiment on UlaG protein is recorded as “high binding affinities”.
